{
  "source": "patent US10328161B2",
  "about": "“Luciferin derivatives from bicyclic reactants and aminothiol derivatives and methods of use thereof” (The Regents of the University of California, priority 2012, dated 2019)",
  "key": {"[1]": {"assay": "Selectivity assay for PCL-2: response to H2O2", "format": "biochemical", "conditions": "H2O2 100 μM and catalase 0.4 mg/mL", "experimental": "(§1) Millipore water was used to prepare all aqueous solutions. Luciferase (100 μg/mL) in 50 mM Tris buffer, pH 7.4, with 10 mM MgCl2, 0.1 mM ZnCl2, and 2 mM ATP was added to selectivity assay samples (described below) to determine the relative amount of luciferin formed during incubation. Measurements for bioluminescent assays were performed at 37° C. and were recorded using a Molecular Devices SpectraMax M2 plate reader (Sunnyvale, Calif.). Samples for bioluminescent measurements were placed in white, opaque 96-well plates, which were purchased from Corning Inc. (Corning, N.Y.). ATP was purchased from MP Biomedicals (Solon, Ohio) or Sigma-Aldrich (St. Louis, Mo.), and luciferase was purchased from Promega (Madison, Wis.). Caspase enzymes were purchased from Sigma-Aldrich (St. Louis, Mo.), and caspase inhibitors were purchased from MP Biomedicals (Solon, Ohio).\nVarious ROS (100 μM) were administered to PCL-2 or HCBT (5 μM) in Tris buffer (50 mM, pH 7.4) with or without 10 mM MgCl2 and 0.1 mM ZnCl2. […] After an additional 15 min incubation, 100 μL of a Tris buffer (50 mM, pH 7.4) containing luciferase (100 μg/mL), 10 mM MgCl2, 0.1 mM ZnCl2, and 2 mM ATP was added to 100 μL of the PCL-2 or HCBT solutions and the bioluminescent signal was detected."}, "[2]": {"assay": "Selectivity assays for dual H2O2 and caspase 8 detection in vitro", "format": "biochemical", "conditions": "for effect of a single inhibitor on the dual-analyte signal: catalase 1 unit or Q-VD-OPh 10 μM, with H2O2 and caspase 8; for effect of both inhibitors together on the dual-analyte signal: catalase 1 unit plus Q-VD-OPh 10 μM combined; for interference with in situ luciferin formation from HCBT and D-cysteine: catalase 1 unit, Q-VD-OPh 10 μM", "experimental": "as §1\nTo quench H2O2 immediately, catalase (1 unit) was subsequently added to some of the solutions. After 60 min, catalase (1 unit) was added to all other solutions containing H2O2 to quench any remaining H2O2. Subsequently, caspase 8 (1 unit) was added to the solutions in the presence or absence of the caspase inhibitor, Q-VD-OPh (10 μM), 15 min prior to IETDC (10 μM) or D-cysteine (5 μM) addition. Following IETDC or D-cysteine addition, the solutions were incubated for 60 min. Additionally, dithiothreitol (1 mM) was added to all solutions at the time of caspase 8 addition to maintain the reduced state of the D-cysteine. To monitor luciferin formation, 100 μL of a Tris buffer (50 mM, pH 7.4) containing luciferase (100 μg/mL), 10 mM MgCl2, 0.1 mM ZnCl2, and 2 mM ATP was added to 100 μL of the PCL-2/IETDC or HCBT/D-cysteine solutions and the bioluminescent signal was detected."}, "[3]": {"target": "T1, caspase 8 (Homo sapiens, UniProt Q14790)", "T1 construct": "purchased Sigma-Aldrich", "T1 sequence (Q14790 217-374 limits assumed, species assumed)": "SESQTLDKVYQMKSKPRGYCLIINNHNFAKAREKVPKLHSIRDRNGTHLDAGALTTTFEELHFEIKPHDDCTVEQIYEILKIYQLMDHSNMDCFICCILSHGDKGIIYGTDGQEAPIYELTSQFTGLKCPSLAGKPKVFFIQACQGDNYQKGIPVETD", "T1 sequence (Q14790 385-479 limits assumed, species assumed)": "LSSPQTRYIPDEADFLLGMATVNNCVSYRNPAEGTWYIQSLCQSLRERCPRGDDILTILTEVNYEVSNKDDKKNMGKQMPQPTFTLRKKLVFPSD", "assay": "Selectivity assay for IETDC: caspase 8", "format": "biochemical", "experimental": "as §1\nFor determination of caspase selectivity, various caspases (3 and 8:1 unit, 9:0.001 unit) were administered to IETDC or D-cysteine (5 μM) in Tris buffer (50 mM, pH 7.4). […] After each enzyme was incubated with IETDC or D-cysteine for 60 min, 100 μL of a Tris buffer (50 mM, pH 7.4) containing luciferase (100 μg/mL), 10 mM MgCl2, 0.1 mM ZnCl2, and 2 mM ATP was added to 100 μL of the IETDC or D-cysteine solutions and the bioluminescent signal was detected."}, "[4]": {"system": "PC3M-luc cells", "assay": "Lifetime of HCBT and D-cysteine in PC3M-luc cells", "format": "cell-based", "conditions": "100 μM, 30 min incubation, wash, complementary reagent after 0-60 min", "experimental": "(§2) A Xenogen IVIS Spectrum instrument (Caliper Life Sciences, Hopkinton, Mass.) was used for bioluminescent imaging in all cellular experiments. PC3M-luc cells (kindly provided by Chris Contag, Stanford University) were cultured in Dulbecco's Modified Eagle Medium (DMEM) containing 10% Fetal Bovine Serum (FBS). Prior to assaying, cells were passed and plated (1.3-1.5×10^4 cells/well) in black 96-well plates with clear bottoms (Becton Dickinson and Company, Franklin Lakes, N.J.). Once the cells were ca. 95% confluent, reagents were added for bioluminescent assays.\nThe medium was removed from PC3M-luc cells prepared as described above, and HCBT (100 μM, 1% DMSO) or D-cysteine (100 μM, 1% PBS) in DMEM (-FBS) was added. After a 30 min incubation, the HCBT or D-cysteine was removed, the cells were washed with DMEM (-FBS), and fresh DMEM was added. After 0, 15, 30, 45, or 60 min, the second component of luciferin, D-cysteine (100 μM final concentration, 1% PBS) or HCBT (100 μM final concentration, 1% DMSO) in HBSS (25 mM glucose) was added, and the plate was immediately imaged for 2 h to determine the peak bioluminescent signal produced."}, "[5]": {"system": "PC3M-luc cells", "assay": "Comparison of in situ luciferin formation and luciferin in PC3M-luc cells (intact and lysed)", "format": "cell-based", "conditions": "inferred from intact versus lysed PC3M-luc cells", "experimental": "as §2\nPC3M-luc cells prepared as described above were washed with HBSS (25 mM glucose) prior to addition of HCBT and D-cysteine (0-500 μM, 1% DMSO) or luciferin (0-500 μM, 1% DMSO) in HBSS (25 mM glucose). For experiments with lysed cells, 100 μL Glo lysis buffer (Promega, Madison, Wis.) was incubated with the PC3M-luc cells for 5 min prior to addition of HCBT and D-cysteine or luciferin. The plates were immediately imaged for 2 h to determine the peak bioluminescent signal produced."}, "[6]": {"assay": "Exogenous H2O2 experiments in mice", "format": "in vivo", "conditions": "for Turn-on: PCL-1 0.5 μmol", "excerpt": "(§3) A Xenogen IVIS Spectrum instrument (Caliper Life Sciences, Hopkinton, Mass.) was used for bioluminescent imaging in all animal experiments. Mice were anesthetized prior to injection and during imaging via inhalation of isoflurane. Phosphate Buffered Saline (PBS) was purchased from Thermo Fisher Scientific (Waltham, Mass.), and saline (0.9%) was made from sodium chloride and Millipore water. Isoflurane was purchased from Phoenix Pharmaceuticals, Inc. (St. Joseph, Mo.), and pharmaceutical grade DMSO was purchased from Sigma-Aldrich (St. Louis, Mo.). Medical grade oxygen was purchased from Praxair (Danbury, Conn.).\n(§4) FVB-luc^+ (FVB-Tg(CAG-luc,-GFP)L2G85Chco/J) mice were bred at UC Berkeley, and were single or group-housed on a 12:12 light-dark cycle at 22° C. with free access to food and water. All studies were approved and performed according to the guidelines of the Animal Care and Use Committee of the University of California, Berkeley.\nUnshaven, male FVB-luc^+ mice were anesthetized with isoflurane and injected IP with a mixture of PCL-2 and D-cysteine (0.05 μmol each, in 50 μL of 1:1 DMSO:PBS), followed immediately by an IP injection of H2O2 (0-4.5 μmol in 100 μL of PBS). Control mice were injected IP with a mixture of HCBT and D-cysteine (0.01 μmol each, in 50 μL of 1:1 DMSO:PBS) immediately prior to H2O2 (4.5 μmol in 100 μL of PBS). Following injections, mice were imaged with an IVIS Spectrum."}, "[7]": {"system": "FVB-luc^+ mice", "assay": "Control: effect of inhibitors and antioxidants on HCBT and D-cysteine luciferin signal in mice", "format": "in vivo", "experimental": "(a) Total photon fluxes, 0-15 min post-injection, for mice (n=3) injected with apocynin (IP, 10 mg/kg in 20 μL DMSO) or vehicle (IP, 20 μL DMSO) two min prior to injections of a mixture of HCBT and D-cysteine (IP, 0.01 μmol each, in 50 μL of 1:1 DMSO:PBS). (b) Total photon fluxes, 15-45 min post-injection, for mice (n=3) injected with z-VD(OMe)-OPh (IP, 1 μmol in 20 μL DMSO) or vehicle (IP, 20 μL DMSO) 30 min prior to injections of a mixture of HCBT and D-cysteine (IP, 0.01 μmol each, in 50 μL of 1:1 DMSO:PBS). Error bars are ±SEM.\nFIG. 18 depicts bioluminescent signals from HCBT and D-cysteine with ascorbic acid in FVB-luc^+ mice. Total photon fluxes, 30-60 min post-injection, for mice (n=3-4) injected with ascorbic acid (IP, 200 mg/kg in 30 μL saline) or vehicle (IP, 30 μL saline) 4.5 h prior to injections of a mixture of HCBT and D-cysteine (IP, 0.01 μmol each, in 50 μL of 1:1 DMSO:PBS). Error bars are ±SEM."}, "[8]": {"assay": "Lipopolysaccharide inflammation model, H2O2 detection with PCL-2", "format": "in vivo, mice", "conditions": "apocynin 10 mg/kg IP, LPS-treated mice", "excerpt": "as §3, §4\nUnshaven, female FVB-luc^+ mice, aged 2-5 months, were anesthetized with isoflurane and injected IP with lipopolysaccharides (LPS, 3 mg/kg in 50 μL of saline) or saline (50 μL). For studies with PCL-2 alone, mice were injected IP with either apocynin (10 mg/kg in 20 μL of DMSO) or DMSO (20 μL) 6 h after LPS injection. […]"}, "[9]": {"system": "H2O2 and caspase 8", "assay": "Lipopolysaccharide inflammation model, dual detection with PCL-2 and IETDC", "format": "in vivo", "conditions": "ascorbic acid 200 mg/kg and z-VD-OPh 1 μmol used together, LPS-treated mice", "excerpt": "as §3, §4\nFor studies with PCL-2 and IETDC, mice were injected IP with ascorbic acid (200 mg/kg in 30 μL of saline) or the saline vehicle (30 μL) 30 min prior to IP injection of LPS (3 mg/kg in 50 μL of saline) or saline (50 μL). Two hours after injection of LPS, z-VD(OMe)-OPh (1 μmol in 20 μL of DMSO) or the vehicle, DMSO (20 μL), was injected IP. […]"}},
  "data": [
    {"compound": "catalase", "values": [
      {"measurement": "effect of catalase on the H2O2 turn-on signal of PCL-2", "setting": "[1]", "result": "attenuated"},
      {"measurement": "effect of a single inhibitor on the dual-analyte signal", "setting": "[2]", "result": "attenuated the increase in signal"},
      {"measurement": "effect of both inhibitors together on the dual-analyte signal", "setting": "[2]", "result": "complete attenuation of signal"},
      {"measurement": "interference with in situ luciferin formation from HCBT and D-cysteine", "setting": "[2]", "result": "did not interfere with in situ luciferin formation"}
    ]},
    {"compound": "CC(C)[C@H](NC(=O)c1ccc2ccccc2n1)C(=O)N[C@@H](CC(=O)O)C(=O)COc1c(F)cccc1F", "note": "[Q-VD-OPh]", "values": [
      {"measurement": "effect of a single inhibitor on the dual-analyte signal", "setting": "[2]", "result": "attenuated the increase in signal"},
      {"measurement": "effect of both inhibitors together on the dual-analyte signal", "setting": "[2]", "result": "complete attenuation of signal"},
      {"measurement": "interference with in situ luciferin formation from HCBT and D-cysteine", "setting": "[2]", "result": "did not interfere with in situ luciferin formation"},
      {"measurement": "effect of caspase inhibitor on the response of IETDC to caspase 8", "setting": "[3]; Q-VD-OPh 10 μM", "result": "complete attenuation"}
    ]},
    {"compound": "N[C@H](CS)C(=O)O", "note": "[D-cysteine]", "values": [
      {"measurement": "cellular lifetime: signal as time between removal and addition of the complementary reagent increases", "setting": "[4]", "result": "still fully available for reaction with HCBT"},
      {"measurement": "change in bioluminescent signal on incubation with caspase enzymes", "setting": "[3]; D-cysteine 5 μM with HCBT, caspases 8, 3, 9", "result": "no change in bioluminescent signal"},
      {"measurement": "permeability across the cell membrane compared to luciferin", "setting": "[5]", "result": "increased permeability"}
    ]},
    {"compound": "O=C(O)[C@H]1CSC(c2nc3ccc(OCc4ccc(B(O)O)cc4)cc3s2)=N1", "note": "[PCL-1]", "values": [
      {"measurement": "Turn-on", "setting": "[6]; H2O2 0.037 μmol", "result": "1.5-fold"},
      {"measurement": "Turn-on", "setting": "[6]; H2O2 0.15 μmol", "result": "2.0-fold"},
      {"measurement": "Turn-on", "setting": "[6]; H2O2 0.6 μmol", "result": "2.7-fold"},
      {"measurement": "detection limit for H2O2 in vivo", "setting": "[6]; IP, FVB-luc^+ mice, optimized imaging conditions for each probe", "result": 0.037, "unit": "µmol"}
    ]},
    {"compound": "COc1cc(C(C)=O)ccc1O", "note": "[apocynin]", "values": [
      {"measurement": "effect on the luciferin signal from HCBT and D-cysteine in vivo", "setting": "[7]; apocynin 10 mg/kg or z-VD-OPh 1 μmol IP, HCBT and D-cysteine 0.01 μmol each", "result": "do not alter the luciferin signal"},
      {"measurement": "reduction in PCL-2 signal upon treatment", "setting": "[8]", "result": 55, "unit": "%"}
    ]},
    {"compound": "O=C1O[C@H]([C@@H](O)CO)C(O)=C1O", "note": "[ascorbic acid]", "values": [
      {"measurement": "effect on the bioluminescent signal from HCBT and D-cysteine", "setting": "[7]; ascorbic acid 200 mg/kg IP 4.5 h before HCBT and D-cysteine 0.01 μmol each", "result": "did not impact the bioluminescent signal"},
      {"measurement": "decrease in dual-probe bioluminescent signal", "setting": "[9]", "result": 30, "unit": "%"}
    ]}
  ]
}
